The values that follow come from patent US6756409B2, “Phenoxyphenyl alkanesulphonates” (priority 2001, dated 2004).

Data set [1] is described as follows: Microsomal stability investigations. Format: in vitro ADME. The conditions noted are these: maximum possible bioavailability extrapolated from rat liver microsomes, 37° C., 15 minutes. The procedure: 4. Microsomal Stability Investigations
The metabolic stability of the compounds according to the invention can be measured in rat liver microsomes (in analogy to J. Pharmacol. Exp. Ther. 1997, 283, 46-58).
To determine the microsomal stability and extrapolate to the maximum possible bioavailability (Fmax) owing to the first-pass effect in the liver (phase 1 reactions), the substance is incubated in low concentration with microsomal protein, with addition of cofactors, at 37° C. for 15 minutes.
The incubation and the sampling take place on a modified automatic pipettor from Canberra Packard.

The next data set addresses T1, rat CB1 receptor (Rattus norvegicus, UniProt P20272).
T1 construct: expressed in transfected cells; host or cells: CHO (CHOluc9-derived reporter line, by analogy with the CB2 line)
The data set can be described thus: Rat CB1 luciferase reporter gene test. Particulars: rat CHOCB1 reporter cell line, forskolin-stimulated luciferase activity. Format: cell-based. The procedure: 1. Rats CB1 Luciferase Reporter Gene Test
Stock cultures of a rat CHOCB1 reporter cell line were prepared by the method described in WO-A-98/37061, page 55 et seq.
The following test protocol was used for the substance screening: the stock cultures were cultivated in 50% of Dulbecco's modified Eagle medium/50% F-12 (DMEM/F12) with 10% FCS at 37° C. under 10% CO2 and split 1:10 after 2 to 3 days in each case. Test cultures were seeded with 5000 cells per well in 96-well plates and cultured at 37° C. for 70 hours. The cultures were then cautiously washed with phosphate-buffered saline and reconstituted with serum-free Ultra-CHO medium (Bio-Whittaker). The substances dissolved in DMSO were diluted 1× in medium and pipetted into the test cultures (maximum DMSO final concentration in test mixture: 0.5%). 20 minutes later, forskolin was added and the cultures were then incubated in an incubator at 37° C. for 3 hours. […] Immediately thereafter luciferase substrate solution (2.5 mM ATP, 0.5 mM luciferin, 0.1 mM coenzyme A, 10 mM tricine, 1.35 mM MgSO4, 15 mM DTT, pH 7.8) was added and briefly shaken, and the luciferase activity was measured using a Hamamatsu camera system. […]
The IC50 values were calculated using the GraphPadPrism program (Hill equation, specifically: one-site competition).

Data set [2] has as its system chronic mechanical hyperalgesia in axotomized rats. The data set can be described thus: Axotomy of sciatic branches in the rat (chronic pain model). The class given is in vivo. The conditions noted are these: orally, acute administration, 60 minutes before the test. How it is done: 7. Axotomy of Sciatic Branches in the Rat (Chronic Pain Model)
Under pentobarbital anaesthesia, the trifurcation of a sciatic nerve is exposed, and the peroneal and tibial branches are axotomized after the nerves have been ligated proximal of the axotomy site. Control animals undergo a sham operation. After the operation, the axotomized animals develop chronic mechanical hyperalgesia. This hyperalgesia is tested, comparing with sham-operated animals, with the aid of a pressure transducer (electronic von Frey anesthesiometer, IITC Inc.—Life Science Instruments, Woodland Hills, Calif., USA).
The substance is administered by various administration routes (i.v., i.p., orally, i.t., i.c.v., transdermally) at various times before the pain testing.

Data set [3] is described as follows: Pharmacokinetics in the rat. The class given is in vivo. Particulars: for AUCstand / Cmax,stand: standardized to 1 mg/kg; for half-life: terminal half-life. How it is done:
5. Pharmacokinetics in the Rat
The substance is infused through a Braunüle in a lateral tail vein directly into the blood stream over 15 minutes. A calibrated 20 ml syringe is used for accurate administration of the chosen dose and volume. A Braun Melsungen No. 152440/1 pump is used for the infusion.
The substance is administered as bolus by gavage.
Blood samples are collected from catheterized animals (jugular vein) in heparinized tubes. The blood is centrifuged and the plasma is prepared in a suitable manner for analysis (LC-MS-MS). The plasma is stored at <−15° C. until analysed.
AUCstand: the area, standardized to a dose of 1 mg/kg, under the plasma concentration/time curve;
Cmax,stand: the maximum plasma concentration after a single administration, standardized to a dose of 1 mg/kg;
tmax: the time at which the maximum plasma concentration is reached after a single dose;
t1/2: terminal half-life;
F: bioavailability; in this case the percentage, compared with i.v. administration, of the dose which is systemically available;
VSS: apparent volume of distribution at the steady state.

The target of the next data set is T2, CB1 receptor (Rattus norvegicus, UniProt P20272).
T2 construct: from tissue; host or cells: whole animal (rat), in vivo
Description: Rat hypothermia agonism test. The conditions noted are these: oral administration. The class given is in vivo. The procedure: The in vivo agonistic effect on the CB1 receptor was examined in the rat hypothermia assay.
Five minutes after determining the basal body temperature via an oesophageal temperature probe, the test substance is administered (orally). A control group receives, likewise orally, only the solvent for the test substances (Cremophors EL 1-10%+distilled water). The body temperature is measured 120 and 240 minutes after oral administration. The size of the group for each dose is 5-7 animals (rats).
Rat Hypothermia Agonism Test

The structures appear in SMILES notation.

T2 sequence (P20272 whole entry): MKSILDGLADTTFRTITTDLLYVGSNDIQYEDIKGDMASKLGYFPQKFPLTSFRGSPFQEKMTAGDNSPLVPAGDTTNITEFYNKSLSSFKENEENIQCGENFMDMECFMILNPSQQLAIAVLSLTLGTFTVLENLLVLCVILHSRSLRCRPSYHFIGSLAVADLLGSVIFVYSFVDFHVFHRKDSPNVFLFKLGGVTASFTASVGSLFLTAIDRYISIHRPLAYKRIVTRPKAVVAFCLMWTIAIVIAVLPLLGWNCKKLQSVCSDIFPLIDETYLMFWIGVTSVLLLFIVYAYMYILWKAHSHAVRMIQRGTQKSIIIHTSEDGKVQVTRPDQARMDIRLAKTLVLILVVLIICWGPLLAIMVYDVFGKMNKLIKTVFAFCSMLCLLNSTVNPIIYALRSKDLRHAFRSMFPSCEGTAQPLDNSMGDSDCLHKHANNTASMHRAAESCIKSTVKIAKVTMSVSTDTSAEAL
T1 sequence (P20272 whole entry): as above

Turning to `Cc1c(Cl)cccc1Oc1cccc(OS(=O)(=O)CCCC(F)(F)F)c1` [Example 15], the Fmax in data set [1] was 4%.
Usually IC50 stands for the midpoint of a concentration-inhibition curve. Read a high IC50 as weaker potency in that assay. On to `O=S(=O)(CCCC(F)(F)F)Oc1cccc(Oc2ccccc2OC(F)(F)F)c1` [Example 17], for which, in data set [1], the Fmax is 40%. On rat CB1 receptor, the IC50 turned out to be 0.81 nM.
By half-life is commonly meant how long it takes for the measured level to halve. One may read the Tmax as the time at which the peak concentration occurs. For `O=S(=O)(CCCC(F)(F)F)Oc1cccc(Oc2cccc(C(F)(F)F)c2Cl)c1` [Example 22], in data set [2], the “minimally effective dose reducing hyperalgesia” value came to 1 mg/kg. In addition, in data set [3] (i.v. infusion, dose 0.3 mg/kg), the AUCstand stood at 0.307 kg·h/L and the “Cmax,stand” value stood at 0.5978 kg/L. In data set [3] (oral, dose 3 mg/kg, bioavailability compared with i.v. administration), this compound yielded an F of 33%. In data set [3] (oral, dose 3 mg/kg), the AUCstand turned out to be 0.102 kg·h/L and the “Cmax,stand” value came to 0.0198 kg/L. Also, in data set [3] (plasma, iv, i.v. infusion, dose 0.3 mg/kg, apparent volume of distribution at steady state, read-out: VSS), the Vd was 4.12 L/kg. Also, the half-life in data set [3] (plasma, iv, i.v. infusion, dose 0.3 mg/kg) was 1.6 h. Besides, in data set [3] (plasma, oral, dose 3 mg/kg), the Tmax amounted to 2.29 h and the half-life is 2.36 h. Moreover, the “ED−1° C. (effective dose for reducing the body temperature by 1° C.)” value on CB1 receptor came to 10 mg/kg.
